Assay results from the supplement of paper PMC13380429.

Assays:
Conditions in all cases: 72 h
Caco-2 [1] = test: cell viability relative to DMSO; higher = less toxic
HepG2 [2] = test: as above
U2OS [3] = test: as above
Calu-3 [4] = test: as above
Vero E6 [5] = test: as above
Caco-2 [6] = test: relative viability EC50 (midpoint between 100% and the lowest measured viability); higher = less toxic
HepG2 [7] = test: as above
U2OS [8] = test: as above
Calu-3 [9] = test: as above
Vero E6 [10] = test: as above
Caco-2 [11] = test: drug sensitivity score (DSS) for viability; higher = more toxic; extreme values may be limits of the assay
HepG2 [12] = test: as above
U2OS [13] = test: as above
Calu-3 [14] = test: as above
Vero E6 [15] = test: as above

Compound | cell viability (Caco-2 [1]; 1 nM) | cell viability (Caco-2 [1]; 10 nM) | cell viability (Caco-2 [1]; 100 nM) | cell viability (Caco-2 [1]; 1000 nM) | cell viability (Caco-2 [1]; 10000 nM) | cell viability (HepG2 [2]; 1 nM) | cell viability (HepG2 [2]; 10 nM) | cell viability (HepG2 [2]; 100 nM) | cell viability (HepG2 [2]; 1000 nM) | cell viability (HepG2 [2]; 10000 nM) | cell viability (U2OS [3]; 1 nM) | cell viability (U2OS [3]; 10 nM) | cell viability (U2OS [3]; 100 nM) | cell viability (U2OS [3]; 1000 nM) | cell viability (U2OS [3]; 10000 nM) | cell viability (Calu-3 [4]; 1 nM) | cell viability (Calu-3 [4]; 10 nM) | cell viability (Calu-3 [4]; 100 nM) | cell viability (Calu-3 [4]; 1000 nM) | cell viability (Calu-3 [4]; 10000 nM) | cell viability (Vero E6 [5]; 1 nM) | cell viability (Vero E6 [5]; 10 nM) | cell viability (Vero E6 [5]; 100 nM) | cell viability (Vero E6 [5]; 1000 nM) | cell viability (Vero E6 [5]; 10000 nM) | relative viability EC50 (Caco-2 [6]) | relative viability EC50 (HepG2 [7]) | relative viability EC50 (U2OS [8]) | relative viability EC50 (Calu-3 [9]) | relative viability EC50 (Vero E6 [10]) | drug sensitivity score (Caco-2 [11]) | drug sensitivity score (HepG2 [12]) | drug sensitivity score (U2OS [13]) | drug sensitivity score (Calu-3 [14]) | drug sensitivity score (Vero E6 [15])
CO[C@@]1(NC(=O)Cc2cccs2)C(=O)N2C(C(=O)O)=C(COC(N)=O)CS[C@@H]21 [cefoxitin] | 90.1% | 95.5% | 102% | 101% | 97.8% | 113% | 91.4% | 98.1% | 97.4% | 97.4% | 95.6% | 99% | 96.3% | 102% | 105% | 106% | 94.4% | 106% | 104% | 110% | 104% | 95.7% | 100% | 96.8% | 85.5% | > 10 µM | > 10 µM | > 10 µM | > 10 µM | > 10 µM | 0 | 0 | 0 | 0 | 0.5
Nc1nc(/C(=C/CC(=O)O)C(=O)N[C@@H]2C(=O)N3C(C(=O)O)=CCS[C@H]23)cs1 [ceftibuten] | 102% | 102% | 106% | 94.9% | 104% | 86.3% | 105% | 99.3% | 95.3% | 91% | 101% | 95% | 100% | 97.8% | 106% | 103% | 99.9% | 102% | 94.6% | 106% | 99.5% | 104% | 96.1% | 104% | 97.8% | > 10 µM | > 10 µM | > 10 µM | > 10 µM | > 10 µM | 0 | 0 | 0 | 0 | 0
CN1C(=O)CCS(=O)(=O)C1c1ccc(Cl)cc1 (stereo not given) [chlormezanone] | 94.4% | 96.2% | 101% | 95.7% | 99.6% | 96.5% | 97.7% | 96.7% | 103% | 103% | 101% | 97.1% | 102% | 95.7% | 103% | 96% | 102% | 96.6% | 97.6% | 102% | 103% | 106% | 104% | 103% | 97.8% | > 10 µM | > 10 µM | > 10 µM | > 10 µM | > 10 µM | 0 | 0 | 0 | 0 | 0
Cc1cc(O)c(C(C)C)cc1Cl [chlorothymol] | 95.6% | 90.3% | 95.8% | 101% | 99.6% | 89.8% | 90.1% | 92.9% | 98.7% | 104% | 99.5% | 97.9% | 104% | 95.9% | 102% | 100% | 83.8% | 101% | 93.5% | 91.9% | 96.9% | 96.9% | 93.7% | 100% | 109% | > 10 µM | > 10 µM | > 10 µM | > 10 µM | > 10 µM | 0 | 0 | 0 | 0 | 0
Nc1ccn(C[C@@H](CO)OCP(=O)(O)O)c(=O)n1 [cidofovir] | 103% | 92.7% | 106% | 96.8% | 101% | 97% | 98.3% | 104% | 111% | 120% | 99.4% | 95.7% | 97.5% | 95.3% | 98.7% | 93.7% | 104% | 112% | 101% | 107% | 93.7% | 94.3% | 88.4% | 87.4% | 99.6% | > 10 µM | > 10 µM | > 10 µM | > 10 µM | > 10 µM | 0 | 0 | 0 | 0 | 0
CN(C(=O)CCCOc1ccc2[nH]c(=O)ccc2c1)C1CCCCC1 [cilostamide] | 100% | 94.7% | 99.2% | 96.9% | 90.6% | 97.2% | 98.7% | 98.8% | 110% | 110% | 102% | 95.5% | 101% | 92.9% | 97% | 92.8% | 92.9% | 94.6% | 85.3% | 105% | 91.7% | 98.3% | 89.8% | 98.1% | 104% | > 10 µM | > 10 µM | > 10 µM | > 10 µM | > 10 µM | 0 | 0 | 0 | 0 | 0
O=C/C=C/c1ccccc1 [cinnamaldehyde] | 103% | 94.2% | 96.9% | 97.6% | 101% | 97.8% | 100% | 108% | 108% | 97.5% | 106% | 99.2% | 98.6% | 96.8% | 99.4% | 90.3% | 105% | 105% | 95.1% | 102% | 92.3% | 99.5% | 96.7% | 98.7% | 95.9% | > 10 µM | > 10 µM | > 10 µM | > 10 µM | > 10 µM | 0 | 0 | 0 | 0 | 0
